Patent publication US10786451B2, “Process for preparing a dry powder formulation comprising an anticholinergic, a corticosteroid and a beta-adrenergic” (CHIESI FARMACEUTICI S.P.A., priority 2015, dated 2020)

What was measured:
[1] = Particle size (volume diameter) by laser diffraction, Malvern apparatus; assay type: physicochemical; conditions: micronized material as used
Procedure: The size of the particles active is determined by measuring the characteristic equivalent sphere diameter, known as volume diameter, by laser diffraction. In the reported examples, the volume diameter has been determined using a Malvern apparatus. However, other equivalent apparatus may be used by the skilled person in the art.

[2] = Aerosol performance by Next Generation Impactor (NGI) from multidose dry powder inhaler; assay type: physicochemical
Description: With the term “mid FPF” is defined as the fraction of delivered dose having a particle size comprised between […].
After aerosolization of 3 doses from the inhaler device, the NGI apparatus was disassembled and the amounts of drug deposited in the stages were recovered by washing with a solvent mixture and then quantified by High-Performance Liquid Chromatography (HPLC)

[3] = formulations disclosed Table 3 of WO 2015/004243; cited from earlier work
[4] = Uniformity of distribution of the active ingredients in the blend (12 samples, HPLC); assay type: physicochemical
Procedure: In the context of the present application the flow properties were tested by measuring the flow rate through an orifice according to the method described in the European Pharmacopeia (Eur. Ph.) 8.6, 8th Edition, which is incorporated herein by reference in its entirety. […] It is usually determined according to known methods, for instance by taking samples from different parts of the powder and testing the component by HPLC or other equivalent analytical methods. The uniformity of distribution of the active ingredients was evaluated by withdrawing 12 samples from different parts of the blend and evaluated by HPLC.

[5] = Batch CY (Cyclomix), reference formulation per WO 2015/004243
[6] = Batch MF (mechano-fusion), reference formulation per WO 2015/004243
[7] = powder formulation of Example 2
[8] = powder formulation of Example 2, NGI, 3 doses
[9] = powder formulation of Example 2, between 2.0 and 5.0 micron
[10] = powder formulation of Example 2, particle size equal to or lower than 5.0 micron
[11] = powder formulation of Example 3
[12] = powder formulation of Example 3, NGI
[13] = powder formulation of Example 3, between 2.0 and 5.0 micron
[14] = powder formulation of Example 3, particle size equal to or lower than 5.0 micron

SMILES: O.OC[C@H]1O[C@@H](O[C@H]2[C@H](O)[C@@H](O)[C@@H](O)O[C@@H]2CO)[C@H](O)[C@@H](O)[C@H]1O [Micronized alpha-lactose monohydrate, alpha-lactose monohydrate]
- particle size d(v0.1) [1]: 1.7 micron
- particle size d(v0.5) [1]: 4.3 micron
- particle size d(v0.9) [1]: 9.8 micron

SMILES: C[N+]1(C)CCC(OC(=O)C(O)(c2ccccc2)C2CCCC2)C1 (centres unmarked) [GB, Glycopyrronium bromide]
- Delivered Dose [2, 5]: 11.6 µg
- Extrafine Particle Fraction <2 μm [2, 5]: 34.5%
- Extrafine Particle Mass <2 μm [2, 5]: 4.0 µg
- Fine Particle Fraction [2, 5]: 53.8%
- Fine Particle Mass [2, 5]: 6.6 µg
- MMAD [2, 5]: 1.78 μm
- Mid Fine Particle Mass [2, 5]: 2.6 µg
- Mid Fine particle Fraction [2, 5]: 22.4%
- Delivered Dose [2, 6]: 11.9 µg
- Extrafine Particle Fraction <2 μm [2, 6]: 33.6%
- Extrafine Particle Mass <2 μm [2, 6]: 4.0 µg
- Fine Particle Fraction [2, 6]: 57.2%
- Fine Particle Mass [2, 6]: 6.4 µg
- MMAD [2, 6]: 1.75 μm
- Mid Fine Particle Mass [2, 6]: 2.5 µg
- Mid Fine particle Fraction [2, 6]: 21.0%
- Extrafine Particle Fraction <1 μm [2, 7]: 15.4%
- Extrafine Particle Fraction <2 μm [2, 7]: 37.6%
- Extrafine Particle Mass <1 μm [2, 7]: 1.8 µg
- Extrafine Particle Mass <2 μm [2, 7]: 4.39 µg
- Fine Particle Fraction [2, 7]: 67.2%
- MMAD [2, 7]: 1.92 μm
- Delivered Dose [2, 8]: 11.66 µg
- Mid Fine Particle Mass [2, 9]: 3.46 µg
- Mid Fine particle Fraction [2, 9]: 29.6%
- Mid Fine particle Fraction ([2]; powder formulation of Example 2, between 2.0 and 5.0 micron, listed as glycopyrrolate): about 30%
- Fine Particle Mass [2, 10]: 7.85 µg
- Extrafine Particle Fraction <1 μm [2, 11]: 8.7%
- Extrafine Particle Fraction <2 μm [2, 11]: 27.4%
- Extrafine Particle Mass <1 μm [2, 11]: 1.75 µg
- Extrafine Particle Mass <2 μm [2, 11]: 5.49 µg
- Fine Particle Fraction [2, 11]: 57.1%
- MMAD [2, 11]: 2.15 μm
- Delivered Dose [2, 12]: 20.03 µg
- Mid Fine Particle Mass [2, 13]: 5.94 µg
- Mid Fine particle Fraction [2, 13]: 29.7%
- Mid Fine particle Fraction ([2]; powder formulation of Example 3, between 2.0 and 5.0 micron, listed as glycopyrrolate): about 30%
- Fine Particle Mass [2, 14]: 11.43 µg
- particle size d(v0.1) [1]: 0.39 micron
- particle size d(v0.5) [1]: 1.91 micron
- particle size d(v0.9) [1]: 4.77 micron
- mid FPF [3]: about 20%

SMILES: CCC(=O)OCC(=O)[C@@]1(OC(=O)CC)[C@@H](C)C[C@H]2[C@@H]3CCC4=CC(=O)C=C[C@]4(C)[C@@]3(Cl)[C@@H](O)C[C@@]21C [BDP, beclometasone dipropionate]
- Uniformity of distribution ([4]; powder formulation of Example 2 (6 μg FF, 100 μg BDP, 12.5 μg GB per 10 mg carrier), mean value, RSD in next column): 101.8
- Uniformity of distribution ([4]; powder formulation of Example 3 (6 μg FF, 100 μg BDP, 25 μg GB per 10 mg carrier)): 100.2
- Delivered Dose [2, 5]: 90.6 µg
- Extrafine Particle Fraction <2 μm [2, 5]: 53.9%
- Extrafine Particle Mass <2 μm [2, 5]: 48.8 µg
- Fine Particle Fraction [2, 5]: 71.2%
- Fine Particle Mass [2, 5]: 64.5 µg
- MMAD [2, 5]: 1.08 μm
- Mid Fine Particle Mass [2, 5]: 15.7 µg
- Mid Fine particle Fraction [2, 5]: 17.3%
- Delivered Dose [2, 6]: 95.7 µg
- Extrafine Particle Fraction <2 μm [2, 6]: 52.2%
- Extrafine Particle Mass <2 μm [2, 6]: 50.0 µg
- Fine Particle Fraction [2, 6]: 69.9%
- Fine Particle Mass [2, 6]: 66.9 µg
- MMAD [2, 6]: 1.13 μm
- Mid Fine Particle Mass [2, 6]: 16.9 µg
- Mid Fine particle Fraction [2, 6]: 17.7%
- Extrafine Particle Fraction <1 μm [2, 7]: 28.7%
- Extrafine Particle Fraction <2 μm [2, 7]: 51.4%
- Extrafine Particle Mass <1 μm [2, 7]: 27.9 µg
- Extrafine Particle Mass <2 μm [2, 7]: 50 µg
- Fine Particle Fraction [2, 7]: 69.4%
- MMAD [2, 7]: 1.25 μm
- Delivered Dose [2, 8]: 97.4 µg
- Mid Fine Particle Mass [2, 9]: 17.6 µg
- Mid Fine particle Fraction [2, 9]: 18%
- Fine Particle Mass [2, 10]: 67.6 µg
- Extrafine Particle Fraction <1 μm [2, 11]: 16.2%
- Extrafine Particle Fraction <2 μm [2, 11]: 40.3%
- Extrafine Particle Mass <1 μm [2, 11]: 13.1 µg
- Extrafine Particle Mass <2 μm [2, 11]: 32.7 µg
- Fine Particle Fraction [2, 11]: 61.8%
- MMAD [2, 11]: 1.62 μm
- Delivered Dose [2, 12]: 80.9 µg
- Mid Fine Particle Mass [2, 13]: 17.3 µg
- Mid Fine particle Fraction [2, 13]: 21.4%
- Fine Particle Mass [2, 14]: 50.0 µg
- particle size d(v0.1) [1]: 0.7 micron
- particle size d(v0.5) [1]: 1.5 micron
- particle size d(v0.9) [1]: 2.8 micron
